“Also recorded” adds a separate entry of the source. Structures can show the parent of a compound that is named as a salt.
Experiments:
[1] = test system: tissue stem cells, transient cells; settings: cell kinetics type the agent acts on; positive control agents; cited from earlier work
[2] = clinical effects of the known drug; cited from earlier work
[3] = test system: human liver stem cell-enriched cultures; test: Serial culture of human liver stem cell strains with xanthosine (cumulative population doublings); type: cell-based; settings: FIG. 14A
Source text: Using a pre-existing dataset developed with control human mini-tissue cultures and cultures treated with the purine nucleoside xanthosine as the test agent, we have validated the ability to use basic cell culture data, described in the methods herein, to detect effects on liver tissue stem cells. […] We used xanthosine as the agent to expand human liver stem cell strains and to produce human liver mini-tissues. […] Thus, culture systems of cells comprising heterogeneous cell population of stem, transient, and differentiated cells can be used to evaluate the activity of a test agent against tissue stem cells by using the methods described herein.
As an initial test of this ability, we used existing data sets from serial culture of our human liver stem cell strains.^14,15 Because these analyses were not ideally developed for the PSCK computer simulation format, they represented a more challenging validation.
The validation agent used was xanthosine, a purine nucleoside that we have shown independently to induce tissue stem cells to switch from asymmetric self-renewal divisions to symmetric divisions that lead to self-replication.

tissue stem cells = settings: in vitro; known in the art; cited from earlier work

Structure (SMILES)	Cell-type Specificity [1]	Clinical Effects [2]	also measured
O=P1(N(CCCl)CCCl)NCCCO1 (stereo not drawn) [cyclophosphamide]	SC and TC	Cytoxan ®; extremely myelosuppressive	–
CC(=O)[C@]1(O)Cc2c(O)c3c(c(O)c2[C@@H](O[C@H]2C[C@H](N)[C@H](O)[C@H](C)O2)C1)C(=O)c1ccccc1C3=O [idarubicin]	–	Targets hematopoietic progenitors	–
Cc1ccc(NC(=O)c2ccc(CN3CCN(C)CC3)cc2)cc1Nc1nccc(-c2cccnc2)n1 [imatinib mesylate]	TC^b	–	–
Cc1ccc(C(=O)Nc2ccc(CN3CCN(C)CC3)c(C(F)(F)F)c2)cc1C#Cc1cnc2cccnn12 [ponatinib]	–	Inclusig ®; myelosuppressive	–
CS(=O)(=O)c1ccc(C2=C(c3ccccc3)C(=O)OC2)cc1 [refecoxib]	SC and TC	Vioxx ®; idiosyncratic life-threatening toxicity	–
Cn1cncc1[C@@](N)(c1ccc(Cl)cc1)c1ccc2c(c1)c(-c1cccc(Cl)c1)cc(=O)n2C [tipifarnib]	–	Highly toxic with myelosuppression	–
O=c1[nH]c(=O)c2ncn([C@@H]3O[C@H](CO)[C@@H](O)[C@H]3O)c2[nH]1 [xanthosine]	SC^a	–	proliferative rate and extent of human liver stem cell serial cultures ([3]; experimental data): increase the proliferative rate and extent; population doublings reached in serial culture ([3]; xanthosine-supplemented culture, control arrests after less than 30 population doublings): greater than 80 population doublings; tissue stem cell self-replication (tissue stem cells): increases self-replication by adult tissue stem cells; also recorded: (In vitro, increases tissue SC self-replication)^1-5
